SMILES strings stand for the structures.

The source of these data is publication PMC11056991, “Promising Anticancer Prodrugs Based on Pt(IV) Complexes with Bis-organosilane Ligands in Axial Positions” (Journal of Medicinal Chemistry, 2024).

The subject of one data set is HCT 116 cancer cells. Particulars: data not shown. As to the method: Cell were trypsinized, centrifuged at 500g for 5 min, resuspended in PBS, and stained with 7-aminoactinomycin D (7AAD, Santa Cruz Biotechnology), a DNA intercalating dye excluded from viable cells due to membrane impermeability. The 7AAD was excited at 546 nm and analyzed at 656 nm. Only apoptotic and necrotic cells are stained by these dyes. After incubation for 50 min in the dark at 37 °C, the cells were analyzed by flow cytometry (CytoFlex, Beckman Coulter). The percentages of cells stained with or without dyes were analyzed using the CytExpert Software (Beckman Coulter).

The nature of data set [1]: 195Pt NMR reduction kinetics with ascorbic acid. The format is physicochemical. Particulars: AsA 4:1 excess, DMSO/D2O (4:1), 37 °C, 2, 6, 24 h. As to the method: AsA presents an intracellular concentration of 1 mM, whereas the GSH concentration is 2 mM.[38] This reactivity was monitored by ^195Pt NMR at different times. Thus, by analyzing the different regions where the signals of Pt(II)/Pt(IV) species appear, it is possible to identify and assign the different compounds formed during the reaction. In most cases, the regions where the Pt(II) and Pt(IV) signals appear are separated by more than 3000 ppm.[33]
We first studied the reduction of the complexes against AsA, monitoring the reaction in both the Pt(IV) and Pt(II) region at 2, 6, and 24 h. In both cases, we used a mixture of DMSO/D2O (4:1) to reach the solubilization of the complexes and the AsA. In the Pt(IV)-biSi-1 reduction experiment, during the first hour, only the signal at 1210 ppm appeared in the Pt(IV) region (Figure S13A), which corresponds to the original complex, and no signal was detected in the Pt(II) region.
Each solution was then slowly added to 100 μL of a solution of the corresponding reducing agent (AsA or GSH in an excess of 4:1 against each complex) in D2O at 37 °C. After that, 100 μL of DMSO-d6 was added carefully to each mixture, reaching a final concentration of […] (DMSO-d6/D2O). All of these mixtures were performed using a thermoshaker. Each sample was monitored by ^195Pt NMR at 2, 6, and 24 h.

Data set [2] can be described thus: Stability in DMEM by 195Pt NMR. As to conditions: DMSO-d6/DMEM 1:4, 37 °C, 0, 24, 48, 120 h. The format is physicochemical. From the text:
We then decided to evaluate the stability of the two Pt(IV) complexes in the medium (DMEM) used to carry out the in vitro experiments, monitoring their kinetics by ^195Pt NMR at different times to evaluate the possible species formed over time. DMEM is supplemented with proteins and other molecules essential for cell growth (Experimental Section). Thus, similar to the reduction assays, we analyzed the Pt(II)/Pt(IV) region where the expected species appear. […] Both Pt(IV)/Pt(II) signals disappeared after 48 h, most likely again because of the binding of the complex to the proteins.
To each solution was then slowly and carefully added 300 μL of DMEM to avoid the precipitation of the complex, reaching a final concentration of 1:4 (DMSO-d6/DMEM). All these mixtures were performed using a thermoshaker. Each sample was monitored by ^195Pt NMR at 0, 24, 48, and 120 h.

Data set [3] concerns HCT 116 colon carcinoma subcutaneous tumors. The data set is described as follows: Subcutaneous HCT 116 tumor model in nude mice. The format is in vivo, athymic nude Foxn1nu mice. An excerpt:
Tumor growth was monitored until tumors in the control group reached the ethically allowed size. […] On the other hand, many types of cancer cause a general increase in lactate dehydrogenase (LDH), and it is considered a nonspecific tumor marker.[57]
To establish the subcutaneous tumor, 2 × 10^6 HCT 116 colon carcinoma cells were resuspended 1:1 in culture media and Matrigel (BD) and injected subcutaneously. Six to eight week old female athymic nude Foxn1nu mice (Harlan Iberica) were used for each point. […] Two therapeutic approaches were compared: acute and chronic (see diagram in Figure 5). Acute treatment was performed (three injections of 10 mg/kg); chronic treatment relied on injections of 1 mg/kg every 3–4 days. […] Tumor growth was monitored by personnel unaware of the group distribution. Experiments were finalized when control animals achieved the maximum tumor size approved by the Ethical Committee. Animals were sacrificed by euthanasia by CO2 inhalation. Selected organs were collected from each animal for histopathological analysis. Samples were fixed in 4% paraformaldehyde for 2 h followed by cold 70% ethanol. Plasma serum was collected to determine hepatic and renal toxicity of treatments using a SPIN200E automatic bioanalyzer (Spinreact).

As for `CC(C)N.CC(C)N.CCO[Si](CCCNC(=O)[O][Pt]([Cl])([Cl])[O]C(=O)NCCC[Si](OCC)(OCC)OCC)(OCC)OCC` [Pt(IV)-biSi-2, cis-Dichloro(diisopropylamine)-trans-[3-(triethoxysilyl)propylcarbamate]platinum(IV)], in the data set with HCT 116 cancer cells, the “Cytotoxicity by flow cytometry, HCT 116” value is on record as “stronger effect”. Also, the “Reduction of the Pt(IV) complex by AsA (Pt(IV) signal in 195Pt NMR)” value in data set [1] is “no signals were observed in the Pt(IV) region after reaction for 2 h”. Besides, in data set [2], the “Stability in DMEM (Pt(IV) signal in 195Pt NMR)” value is reported as “suffered a marked decrease after 24 h”. In addition, the “Tumor volume versus control (PBS)” value in data set [3] (i.p., acute and chronic treatments) was “significantly reduced tumor volume”. Also, in data set [3] (i.p., acute and chronic treatments, Pt concentration one-third that of cisplatin), the “Tumor growth compared with cisplatin” value is on record as “reduced tumor growth more than cisplatin”. The “LDH levels (tumor marker)” value in data set [3] (serum, versus cisplatin treatment) was “reduced LDH levels significantly more”.
